Data on one molecule can be found in publication PMC11462260, “Anthricin-induced hyperactive proteasome and its molecular mechanism” (Biochemistry and Biophysics Reports, 2024).

Each structure is given as a SMILES string.

The assay deals with T1, human 20S proteasome (Homo sapiens, UniProt P28072+P28074+Q99436).
T1 construct: gene PSMB6; native 20S core particle from human erythrocytes (commercial), 28 subunits of 14 types, lysine-biotinylated, on streptavidin beads
In words: pull-down on biotinylated proteasome beads, LC-MS/MS of eluate. The following applies: 20 uM anthricin, 250 pmol proteasome, 30 min, room temperature, D-PBS with 0.1 % BSA; binding site not mapped experimentally.

Take `COc1cc([C@@H]2c3cc4c(cc3C[C@H]3COC(=O)[C@@H]32)OCO4)cc(OC)c1OC` [anthricin]: the “pull-down on biotinylated proteasome beads, LC-MS/MS of eluate” value is “When anthricin was mixed with the proteasome-immobilized beads, a clear peak corresponding to anthricin was detected”.
